In brackets after ≈: the same amount, converted by molar mass. Read-outs that look alike come from different tables or passages of the source.
Key:
[1] = tested on: Staphylococcus aureus ATCC 33591; assay: MIC microdilution assay; assay type: cell-based; details: Staphylococcus aureus, ATCC33591; S. aureus ATCC 33591; CAMHB; 35±2° C. 18 to 20 hours; two values given; read-out: MIC
Procedure: (§1) Strain numbers starting with “ATCC” were acquired from the American Type Culture Collection (Manassas, VA), while strain numbers starting with “CDC” were acquired from the Centers for Disease Control and Prevention (Atlanta, GA). All strains were maintained as −80° C. frozen glycerol stocks. S. aureus and P. aeruginosa were grown overnight on Tryptic Soy Agar (TSA) plates at 35±2° C., ambient atmosphere, while S. pyogenes was grown overnight on TSA+5% defibrinated sheep blood at 35±2° C., 5% CO2. All fungal species (i.e. C. albicans, C. auris and C. herbarum) were grown on Sabouraud Dextrose Agar (SDA) plates. C. herbarum was grown at 25±2° C. for 5 to 7 days, while all other fungal strains were grown at 35±2° C. overnight.
(§2) Test articles Compound 2 (batch #2G13A0.368) and Compound 23 (batch #2G17A0.372) were received and stored at 4° C. The antibiotic Tobramycin and antifungal Amphotericin B were used as quality control (QC) compounds for the MIC assay. Stock solutions of 3.2 mg/mL Tobramycin (Sigma-Aldrich, cat #T1783-500MG) and 3.2 mg/mL Amphotericin B (CP Lab Chemicals, cat #TOK-A007-1G) were prepared in sterile ultrapure water.
(§3) For bacteria strains, a few colonies of each strain were collected with a sterile swab and used to make a McFarland 0.5 standard solution (approximately 1×10^8 CFU/mL) in sterile PBS. The McFarland was then diluted 1:180 in Cation Adjusted Muller-Hinton Broth (CAMHB) for S. aureus and P. aeruginosa, and in CAVHIIB+5% defibrinated sheep blood for S. pyogenes. 90 μL of this inoculum was combined with 10 μL of the 10× test article in a 96-well plate for a final concentration of 1×.
(§4) All bacterial-strain MIC 96-well plates were incubated at 35±2° C. for 18 to 20 hours, while all Candida MIC 96-well plates were incubated at 35±2° C. for 24 to 48 hours. C. herbarum MIC 96-well plates were incubated at 25±2° C. for 3 to 5 days, until growth was visible in the growth control wells. After incubation, the 96-well plates were examined visually and on a spectrophotometer at absorbance OD650. […]

P. aeruginosa ATCC 27853 = assay: MIC microdilution assay; assay type: cell-based, Pseudomonas aeruginosa; details: Pseudomonas aeruginosa, ATCC27853, CAMHB, 35±2° C. 18 to 20 hours, two values given, read-out: MIC
Procedure: as §1, §2, §3, §4

S. pyogenes ATCC 51339 = assay: MIC microdilution assay; assay type: cell-based, Steptococcus pyogenes; details: broth +5% defibrinated sheep blood, 35±2° C. 18 to 20 hours, two values given
Procedure: as §1, §2, §3, §4

[2] = tested on: Candida albicans ATCC 90028; assay: MIC microdilution assay; assay type: cell-based; details: Candida albicans, ATCC90028; C. albicans ATCC 90028; RPMI media; 35±2° C. 24 to 48 hours; two values given; read-out: MIC
Procedure: as §1, §2, §3
(§5) For the yeasts C. albicans and C. auris, a McFarland 0.5 standard solution in sterile PBS was similarly prepared (approximately 1×10^6 CFU/mL) and was subsequently diluted 1:180 in RPMI 1640 media buffered with 0.165 M MOPS at pH 7.0 (herein referred to as “RPMI media”). 90 μL of the Candida inoculum was combined with 10 μL of the 10× test article in a 96-well plate for a final concentration of 1×.
(§6) All bacterial-strain MIC 96-well plates were incubated at 35±2° C. for 18 to 20 hours, while all Candida MIC 96-well plates were incubated at 35±2° C. for 24 to 48 hours. C. herbarum MIC 96-well plates were incubated at 25±2° C. for 3 to 5 days, until growth was visible in the growth control wells. After incubation, the 96-well plates were examined visually and on a spectrophotometer at absorbance OD650. MIC is defined as the lowest concentration of a compound in which no visible growth is observed.

Candida auris CDC 0381 = assay: MIC microdilution assay; assay type: cell-based; details: Candidozyma auris, CDC0381; C. auris CDC 0381; RPMI media; 35±2° C. 24 to 48 hours; two values given; read-out: MIC
Procedure: as §1, §2, §3, §5, §6

[3] = tested on: Candida albicans ATCC 90028; assay: MIC microdilution assay (Example 32); assay type: cell-based; details: Candida albicans, ATCC90028; C. albicans ATCC 90028 (quality control); RPMI media; 35±2° C. 24 to 48 hours; two values given; read-out: MIC
Procedure: (§7) Strain IDs starting with “ATCC” were acquired from the American Type Culture Collection (Manassas, VA), strain IDs starting with “Eurofins” were acquired from Eurofins (Herndon, VA), while strain IDs starting with “CDC” were acquired from the Centers for Disease Control and Prevention (Atlanta, GA). All strains were maintained as −80° C. frozen glycerol stocks. S. aureus and P. aeruginosa were grown overnight on Tryptic Soy Agar (TSA) plates at 35±2° C., ambient atmosphere, while S. pyogenes was grown overnight on TSA+5% defibrinated sheep blood at 35±2° C., 5% CO2. C. jejuni was grown for 48 hours on TSA+5% defibrinated sheep blood at 35±2° C., in a microaerophilic environment generated by CampyGen sachet. All fungal species (i.e. C. albicans and C. auris) were grown overnight on Sabouraud Dextrose Agar (SDA) plates at 35±2° C., ambient atmosphere.
as §2, with “Test article” for “Test articles”, “Compound 1” for “Compound 2”, “(batch #7G30A9.203) was” for “(batch #2G13A0.368) and Compound 23 (batch #2G17A0.372) were received and”
as §3, with “aeruginosa. S. pyogenes McFarland was diluted 1:180” for “aeruginosa, and”, “CAMHB+5%” for “CAVHIIB+5%”, “blood, while C. jejuni McFarland was diluted 1:180 in CAMHB+5% laked horse blood.” for “blood for S. pyogenes.”
as §5
(§8) Except for C. jejuni, all bacterial-strain MIC 96-well plates were incubated at 35±2° C. for 18 to 20 hours, ambient atmosphere. C. jejuni was incubated at 35±2° C. for 48 hours, under microaerophilic condition. All Candida MIC 96-well plates were incubated at 35±2° C. for 24 to 48 hours, ambient atmosphere, until growth in control wells were observed. After incubation, the 96-well plates were examined visually and on a spectrophotometer at absorbance OD650. MIC is defined as the lowest concentration of a compound in which no visible growth is observed.

Candida auris CDC 0385 = assay: MIC microdilution assay (Example 32); assay type: cell-based; details: Candidozyma auris, CDC0385; C. auris CDC 0385; RPMI media; 35±2° C. 24 to 48 hours; two values given; read-out: MIC
Procedure: as §7
as §2, with “Test article” for “Test articles”, “Compound 1” for “Compound 2”, “(batch #7G30A9.203) was” for “(batch #2G13A0.368) and Compound 23 (batch #2G17A0.372) were received and”
as §3, with “aeruginosa. S. pyogenes McFarland was diluted 1:180” for “aeruginosa, and”, “CAMHB+5%” for “CAVHIIB+5%”, “blood, while C. jejuni McFarland was diluted 1:180 in CAMHB+5% laked horse blood.” for “blood for S. pyogenes.”
as §5, §8

NC[C@H]1O[C@H](O[C@H]2[C@H](O)[C@@H](O[C@H]3O[C@H](CO)[C@@H](O)[C@H](N)[C@H]3O)[C@H](N)C[C@@H]2N)[C@H](N)C[C@@H]1O [Tobramycin]
MIC [1]: > 32 µg/mL | MIC (P. aeruginosa ATCC 27853): 0.25 µg/mL (≈ 0.535 µM) | MIC (S. pyogenes ATCC 51339; S. pyogenes ATCC 51339): 32 µg/mL (≈ 68.4 µM) | MIC (S. pyogenes ATCC 51339; Streptococcus pyogenes, ATCC51339, S. pyogenes ATCC 51339, read-out: MIC): 16 µg/mL (≈ 34.2 µM) | MIC [2]: > 32 µg/mL | MIC (Candida auris CDC 0381): > 32 µg/mL | MIC [3]: > 32 µg/mL | MIC (Candida auris CDC 0385): > 32 µg/mL

From patent US12264170B2, “Antimicrobial organosilanes” (TOPIKOS SCIENTIFIC, INC., priority 2019, dated 2025)
